# Like-named read-outs stand apart in the source and are kept apart here.
# Key:
# [1] = test system: mantle cell lymphoma cell lines (Mino and Z-138); assay: Thymidine incorporation proliferation assay in mantle cell lymphoma cell lines; assay type: cell-based
# Description: (§1) FIG. 1. Effect of Tumeric Derivatives in MCL cells. Six TMX analogs were screened in two mantle cell lymphoma cell lines (Mino and Z-138). These assays were performed by treating cells with increasing doses of TMX (0-25 μM) and analyzed by thymidine incorporation (proliferation assay).
# as §1, with “2.” for “1.”, “Turmerax Compounds” for “Tumeric Derivatives”, “MCLs. 10 additional” for “MCL cells. Six”, “analogs derived from compound #6 (from FIG. 1)” for “analogs”
# FIG. 3. Effect of Turmerax Compounds in MCLs. Four compounds from FIG. 2 were selected to analyze at concentrations below 1 μM for cell growth inhibition in vitro.
# Malignant lymphoma continues to represent a major health issue in the US and worldwide. Non-Hodgkin lymphomas (NHL) are a common, heterogeneous group of primarily (˜85%) B lymphoid cell neoplasms (NHL-B) arising in the B cell lineage of the human immune (lymphoid) system. NHL-Bs are the fifth most common cancer in the USA (˜65,000 new cases/25,000 deaths expected in 2010). Therefore, there is a great need for novel treatment strategies for this deadly cancer, particularly for relapsed/refractory lymphomas. Relapsed/refractory (r/rDLBCL) DLBCL is one of the most difficult scientific challenges and severe unmet therapeutic needs in clinical oncology today. This is due largely to very drug resistant tumor cells with very poor responses (<20% PR/CR) to current “salvage” therapies. Key pathways (NF-kB, AKT, STAT3), controlling cell growth/survival and chemoresistance in DLBCL have been discovered. Since natural compounds such as turmeric can target multiple pathways with low cellular toxicity, novel compounds with higher potency for cancer cells were sought. Initially, 6 novel turmeric analogues were designed and synthesized using cyclic thioketone and different substituted aromatic aldehydes. […] These compounds were named turmerax (TMX) (1-10), and tested them in the two resistant mantle cell lymphoma cell lines (Mino and Z-138). […] Turmerax compounds 1, 3, 5 and 9 were further analyzed at concentrations below 1 μM for cell growth inhibition in vitro. […] Next, the toxicity of these Turmerax compounds (1, 3, 5 and 9) was evaluated in normal human peripheral blood mononuclear cells (PBMC). […] The effectiveness of Turmerax compounds 1 and 5 in four MCL cell lines were examined, four LBCL cell lines (both ABC and GCB-type) and one follicular lymphoma cell line (CJ) in comparison to the wild type (natural) curcumin compound, to which these compounds bear some structural relatedness. The IC50 for Turmerax cmpds.
# MS cells = assay: Sensitivity of doxorubicin-resistant DLBCL cells; assay type: cell-based
# Description: (§2) FIG. 7. TMX-1 Targets NF-kB and Key Signaling Pathways in DLBCL to Overcome Chemoresistance. Top left, DLBCL cells (MS) were transfect with the 6×-NF-kB-luciferase expression vector for 24 hrs. Transfected cells were treated with PBS (control) or Lipo-TMX-1 (100 nM) for 4 hrs. Cell lysates were used to analyzed for luciferase activity that was normalized with b-gal activity. Top right, TMX-1 inhibited NIK and pAKT in NHL-B cells. MS cells were treated with increasing doses of Lipo-TMX-1 (0-500 nM) for 24 hrs. NIK and pAKT protein expressions were determined by Western blotting. Bottom, Doxorubicin resistant cells are sensitive to TMX-1. MS cells are resistant to Dox, but are sensitive to TMX-1. McA DLBCL cells are sensitive to both doxorubicin and TMX-1.
# McA DLBCL cells = assay: Sensitivity of doxorubicin-sensitive DLBCL cells; assay type: cell-based
# Description: as §2
# [2] = test system: normal human peripheral blood mononuclear cells (PBMC); assay: Cytotoxicity in normal PBMC by thymidine incorporation; assay type: cell-based; settings: minimal toxicity stated for drug concentration below 600 nM
# Source text: FIG. 4. Effect of Turmerax compounds in normal peripheral blood mononuclear cells (PBMC). Turmeric analogues (1, 3, 5, and 9) were evaluate for cytoxicity in normal human peripheral blood mononuclear cells (PBMC) by thymidine incorporation assays.
# Malignant lymphoma continues to represent a major health issue in the US and worldwide. Non-Hodgkin lymphomas (NHL) are a common, heterogeneous group of primarily (˜85%) B lymphoid cell neoplasms (NHL-B) arising in the B cell lineage of the human immune (lymphoid) system. NHL-Bs are the fifth most common cancer in the USA (˜65,000 new cases/25,000 deaths expected in 2010). Therefore, there is a great need for novel treatment strategies for this deadly cancer, particularly for relapsed/refractory lymphomas. Relapsed/refractory (r/rDLBCL) DLBCL is one of the most difficult scientific challenges and severe unmet therapeutic needs in clinical oncology today. This is due largely to very drug resistant tumor cells with very poor responses (<20% PR/CR) to current “salvage” therapies. Key pathways (NF-kB, AKT, STAT3), controlling cell growth/survival and chemoresistance in DLBCL have been discovered. Since natural compounds such as turmeric can target multiple pathways with low cellular toxicity, novel compounds with higher potency for cancer cells were sought. Initially, 6 novel turmeric analogues were designed and synthesized using cyclic thioketone and different substituted aromatic aldehydes. […] These compounds were named turmerax (TMX) (1-10), and tested them in the two resistant mantle cell lymphoma cell lines (Mino and Z-138). […] Turmerax compounds 1, 3, 5 and 9 were further analyzed at concentrations below 1 μM for cell growth inhibition in vitro. […] Next, the toxicity of these Turmerax compounds (1, 3, 5 and 9) was evaluated in normal human peripheral blood mononuclear cells (PBMC). […]
# [3] = test system: melanoma, gastric, pancreatic, and glioma cancer cell lines; assay: MTT cell growth inhibition in NF-kB-associated solid tumor cancer cell lines; assay type: cell-based
# Source text: FIG. 11. Effect of TMX-1 in NF-kB-Associated Cancers. Representative cancer cell lines for melanoma, gastric, pancreatic, and glioma were used to analyzed for cell growth inhibition activity of TMX-1 using MTT assays.
# (§3) These formulations may be used in further clinical trials.
# LY10 cells = assay: Annexin V apoptosis assay; assay type: cell-based; settings: 500 nM drug concentration, 24 hrs
# Description: (§4) FIGS. 12A-C. TMX-1 induces apoptosis in lymphoma cells. (FIG. 12A) A representative lymphoma cell line (LY10) was treated with TMX-1 in a dose-dependent manner for 24 hrs. Apoptosis was determined by Annexin V assays. (FIG. 12B) TMX-1 activates phospho-H2AX (DNA damage marker) and induces bcl-2 cleaving in lymphoma cells. (FIG. 12C) A representative DLBCL cell line (MS) was transfected with a NF-kB-luciferase reporter for 24 hrs. Cells were treated with TMX-1 as indicated.
# (§5) To determine whether TMX-1 can induce apoptosis in lymphoma cells, we treated a diffuse large cell lymphoma (DLBCL) cell line (LY-10) with TMX-1 in a dose-dependent manner for 24 hrs. Control and treated cells were analyzed for apoptosis using Annexin V assays. […] Next, we test whether TMX-1 can induces DNA damage in LY-10 cells. […] The inventors also examined whether TMX-1 can inhibit NF-kB activity in lymphoma cells. For these studies, a DLBCL cell line (MS) was transfected with a NF-kB luciferase reporter for 24 hrs, at which time cells were treated with TMX-1 in a dose- and time-dependent manner. […] There are many NF-kB inhibitors commercially available that have been tested in many cancer systems, but none has ever reached the clinic to cancer treatment. The reason for this is typically because these agents usually target upstream of NF-kB signaling pathways, leading to many unwanted side effects.
# bcl-2 = bcl-2 cleaving in LY-10 cells; assay type: cell-based
# Description: as §4, §5
# DLBCL cell line (TJ) = assay: Combination cell proliferation assays in DLBCL cell line (TJ); assay type: cell-based; settings: TJ cells
# Description: FIGS. 14A-B. A representative DLBCL cell line (TJ) was treated with TMX-1 in a dose-dependent manner alone or in combination with Ibrutinib (IB) and carfilzomib (CFZ) and cell proliferation assays were analyzed.
# Recent molecularly targeted therapy, as opposed to classic chemotherapy, has improved the treatment of lymphoid malignancies. At the forefront of clinical development are ibrutinib, an inhibitor of Bruton's tyrosine kinase (btk) and carfilzomib (CFZ), a second-generation proteasome inhibitor.
# pH2AX = assay: DNA damage marker in LY-10 cells; assay type: cell-based
# Description: as §4, §5
# pAKT = assay: Western blotting of pAKT in MS cells; assay type: cell-based; settings: Lipo-TMX-1 0-500 nM, 24 hrs
# Description: as §2
# [4] = test system: human DLBCL cell lines (Dox-sensitive and Dox-resistant); assay: 72-hr proliferation assays in doxorubicin-sensitive and -resistant DLBCL cell lines; assay type: cell-based
# Description: FIGS. 13A-B. TMX-1 inhibits DLBCL cell proliferation. (FIG. 13A) 24 representative DLBCL cell lines were treated with TMX-1 in dose-dependent manner and analyzed by thymidine incorporation assays for cell growth inhibition. (FIG. 13B) Effect of TMX-1 in doxorubicin highly sensitive and highly resistant DLBCL cell lines (Pham et al., 2011).
# DLBCL are currently initially treated fairly successfully with R-CHOP frontline chemotherapy (˜70-80% initial remission rate), but relapsed/refractory DLBCL occurs frequently (˜40% within 2-3 yrs), with very poor salvage therapy options (˜20% PR/CR). A unique repertoire of human DLBCL cell lines were developed (Ford et al., 1990; Pham et al., 2010) that can be classified into two subgroups, doxorubicin (a key component in CHOP)-sensitive and doxorubicin-resistant. These cell lines were screened against TMX-1 in a dose-dependent manner using 72-hr proliferation assays (FIG. 13A).
# Bio-availability in vivo = assay: Bio-availability in vivo
# Source text: as §3
# [5] = Water solubility, suspended in water for 24 hrs; assay type: physicochemical
# Source text: FIG. 8. Water Solubility of Lipo-Turmerax-1 Compound. Liposomal TMX-1 and TMX-1 compounds were suspended in water for 24 hrs.
# as §3
# NIK = assay: Western blotting of NIK in MS cells; assay type: cell-based; settings: Lipo-TMX-1 0-500 nM, 24 hrs
# Description: as §2
# [6] = Mino and Z-138, doses 0-25 μM, thymidine incorporation, read-out: IC50, cell growth inhibition
# [7] = further analyzed at concentrations below 1 μM, read-out: IC50, cell growth inhibition
structure (smiles),measurement,setting,value
"O=C1/C(=C/c2c(F)ccc(Cl)c2F)CSC/C1=C\c1c(F)ccc(Cl)c1F [Turmerax 8, 3,5-bis[(2,6-difluoro-3-chlorophenyl)methylene]-tetrahydrothiopyran-4-one]",IC50,[1]; [6],> 25000 nM
"COc1cccc2c1C(=O)c1c(O)c3c(c(O)c1C2=O)C[C@@](O)(C(=O)CO)C[C@@H]3O[C@H]1C[C@H](N)[C@H](O)[C@H](C)O1 [doxorubicin, reference compound]",sensitivity of MS cells,MS cells,resistant
same,sensitivity of McA DLBCL cells,McA DLBCL cells,sensitive
"COc1ccc(/C=C2\CSC/C(=C\c3ccc(OC)c(C)c3C)C2=O)c(C)c1C [Turmerax 7, 3,5-bis[(3,4-dimethyl-4-methoxyphenyl)methylene]-tetrahydrothiopyran-4-one]",IC50,[1]; [6],> 25000 nM
N#Cc1ccc(/C=C2\CSC/C(=C\c3ccc(C#N)cc3)C2=O)cc1 [Turmerax 9],toxicity to PBMC,[2],some toxicity
same,IC50,[1]; [6],< 1000 nM
same,IC50,[1]; [7],200 to 800 nM
"O=C1/C(=C/c2ccc([N+](=O)[O-])c(O)c2)CSC/C1=C\c1ccc([N+](=O)[O-])c(O)c1 [Turmerax 3, 3,5-bis[(3-hydroxy-4-nitrophenyl)methylene]-tetrahydrothiopyran-4-one]",toxicity to PBMC,[2],only minimal cell toxicity
same,IC50,"[1]; read-out: IC50, cell growth inhibition, Mino and Z-138, doses 0-25 μM, thymidine incorporation",< 1000 nM
same,IC50,"[1]; read-out: IC50, cell growth inhibition, further analyzed at concentrations below 1 μM",200 to 800 nM
"N#Cc1cccc(/C=C2\CSC/C(=C\c3cccc(C#N)c3)C2=O)c1 [Turmerax 1, 3,5-bis[(3-cyanophenyl)methylene]-tetrahydrothiopyran-4-one]",inhibition of solid tumor cancer cells,[3],highly effective
same,apoptosis induced,LY10 cells,up to 80%
same,bcl-2 anti-apoptotic protein,bcl-2,cleaved
same,effectiveness of combination with ibrutinib compared with combination with CFZ,DLBCL cell line (TJ),more effective than TMX-1 in combination with CFZ
same,interaction with ibrutinib in inhibiting lymphoma cell growth,DLBCL cell line (TJ),highly synergistic
same,pH2AX (DNA damage marker),pH2AX,significantly increased
same,sensitivity of MS cells,MS cells,sensitive
same,sensitivity of McA DLBCL cells,McA DLBCL cells,sensitive
same,pAKT protein expression,pAKT,inhibited
same,activity in Dox-sensitive vs. Dox-resistant DLBCL cell lines,[4],equivalent
same,bio-availability,Bio-availability in vivo,reduced bio-availability
same,precipitation in water,[5],shows precipitation
same,toxicity to PBMC,[2],only minimal cell toxicity
same,NIK protein expression,NIK,inhibited
same,IC50,[1]; [6],< 1000 nM
same,IC50,[1]; [7],100 to 200 nM
"O=C1/C(=C/c2ccc(Cl)c([N+](=O)[O-])c2)CSC/C1=C\c1ccc(Cl)c([N+](=O)[O-])c1 [Turmerax 5, 3,5-bis[(3-nitro-4-chlorophenyl)methylene]-tetrahydrothiopyran-4-one]",IC50,[1]; [6],< 1000 nM
same,IC50,[1]; [7],100 to 200 nM
"O=C1/C(=C/c2ccc(Br)cc2)CSC/C1=C\c1ccc(Br)cc1 [Turmerax 10, 3,5-bis[(4-bromophenyl)methylene]-tetrahydrothiopyran-4-one]",IC50,[1]; [6],3000 to 10000 nM
"CCOC(=O)c1ccc(/C=C2\CSC/C(=C\c3ccc(C(=O)OCC)cc3)C2=O)cc1 [Turmerax 6, 3,5-bis[(4-ethoxycarbonylphenyl)methylene]-tetrahydrothiopyran-4-one]",IC50,[1]; [6],3000 to 10000 nM
"O=C1/C(=C/c2ccc(Cl)c(Cl)c2)CSC/C1=C\c1ccc(Cl)c(Cl)c1 [Turmerax 2, 3,5-bis[(3,4-dichlorophenyl)methylene]-tetrahydrothiopyran-4-one]",IC50,[1]; [6],3000 to 10000 nM
"COc1ccc(/C=C2\CSC/C(=C\c3ccc(OC)c(OC)c3OC)C2=O)c(OC)c1OC [Turmerax 4, 3,5-bis[(2,3,4-trimethoxyphenyl)methylene]-tetrahydrothiopyran-4-one]",IC50,[1]; [6],> 25000 nM

# From patent US10208012B2, “Compounds for treating inflammatory and hyperproliferative diseases” (Board of Regents, The University of Texas System, priority 2013, dated 2019)
